The numbers were not newly measured in US11147946B2, “Venous access catheters and methods for portal venous system catheterization” (THE REGENTS OF THE UNIVERSITY OF COLORADO, A BODY CORPORATE, priority 2014, dated 2021), which cites them from elsewhere.

Numbered stars: 1 amine (or outer) side, 2 acyl side, 3 side chain; on linkers, the order of the positions; unused ones are H or OH. Square brackets hold non-standard residues; d marks the D form. Side chains are listed from the residue outwards. Peptide text beside a SMILES is read from it. * marks the point of attachment. Ethylenediamine = C(CN[*:2])N[*:1]; Hyp = O=C(O)[C@@H]1C[C@@H](O)CN1; Phg = N[C@H](C(=O)O)c1ccccc1; CO = O=C([*:1])[*:2]; Bn = c1ccc(C*)cc1

One series relates to portal hypertension. Conditions: compared with propranolol, cirrhosis.
The target of another series is SSTR1 (Homo sapiens, UniProt P30872).
Sequence of SSTR1 (P30872 whole entry): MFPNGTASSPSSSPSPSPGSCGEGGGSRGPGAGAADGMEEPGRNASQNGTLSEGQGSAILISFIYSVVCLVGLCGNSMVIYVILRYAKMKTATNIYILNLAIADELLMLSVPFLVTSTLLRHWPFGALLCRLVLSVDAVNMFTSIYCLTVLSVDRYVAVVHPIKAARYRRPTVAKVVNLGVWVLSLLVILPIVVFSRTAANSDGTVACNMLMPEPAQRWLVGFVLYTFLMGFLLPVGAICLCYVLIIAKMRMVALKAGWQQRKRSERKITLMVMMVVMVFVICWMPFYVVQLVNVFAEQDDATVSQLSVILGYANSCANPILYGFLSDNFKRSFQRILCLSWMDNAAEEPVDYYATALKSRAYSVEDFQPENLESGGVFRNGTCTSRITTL
A further series concerns the target SSTR2 (Homo sapiens, UniProt P30874).
The target in the next series is SSTR3 (Homo sapiens, UniProt P32745).
Sequence of SSTR3 (P32745 whole entry): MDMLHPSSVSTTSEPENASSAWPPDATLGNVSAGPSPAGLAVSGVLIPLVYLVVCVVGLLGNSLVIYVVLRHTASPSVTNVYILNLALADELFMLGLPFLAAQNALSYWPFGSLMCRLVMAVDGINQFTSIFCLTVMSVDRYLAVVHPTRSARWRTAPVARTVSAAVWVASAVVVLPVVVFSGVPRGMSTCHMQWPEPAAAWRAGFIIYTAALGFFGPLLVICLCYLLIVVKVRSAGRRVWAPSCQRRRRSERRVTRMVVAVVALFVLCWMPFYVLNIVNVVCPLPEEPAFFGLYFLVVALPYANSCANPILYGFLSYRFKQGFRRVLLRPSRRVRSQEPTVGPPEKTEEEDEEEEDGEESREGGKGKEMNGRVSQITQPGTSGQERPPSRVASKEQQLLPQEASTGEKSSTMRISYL
The next series has as its target SSTR4 (Homo sapiens, UniProt P31391).
Series [1] deals with human breast (MCF7) carcinoma cell line.
For series [2], the system named is human pancreas (BxPC-3) carcinoma cell line.
For series [3], the target named is (Homo sapiens, UniProt P08069).
Sequence of (Homo sapiens, UniProt P08069) (P08069 31-736 limits assumed): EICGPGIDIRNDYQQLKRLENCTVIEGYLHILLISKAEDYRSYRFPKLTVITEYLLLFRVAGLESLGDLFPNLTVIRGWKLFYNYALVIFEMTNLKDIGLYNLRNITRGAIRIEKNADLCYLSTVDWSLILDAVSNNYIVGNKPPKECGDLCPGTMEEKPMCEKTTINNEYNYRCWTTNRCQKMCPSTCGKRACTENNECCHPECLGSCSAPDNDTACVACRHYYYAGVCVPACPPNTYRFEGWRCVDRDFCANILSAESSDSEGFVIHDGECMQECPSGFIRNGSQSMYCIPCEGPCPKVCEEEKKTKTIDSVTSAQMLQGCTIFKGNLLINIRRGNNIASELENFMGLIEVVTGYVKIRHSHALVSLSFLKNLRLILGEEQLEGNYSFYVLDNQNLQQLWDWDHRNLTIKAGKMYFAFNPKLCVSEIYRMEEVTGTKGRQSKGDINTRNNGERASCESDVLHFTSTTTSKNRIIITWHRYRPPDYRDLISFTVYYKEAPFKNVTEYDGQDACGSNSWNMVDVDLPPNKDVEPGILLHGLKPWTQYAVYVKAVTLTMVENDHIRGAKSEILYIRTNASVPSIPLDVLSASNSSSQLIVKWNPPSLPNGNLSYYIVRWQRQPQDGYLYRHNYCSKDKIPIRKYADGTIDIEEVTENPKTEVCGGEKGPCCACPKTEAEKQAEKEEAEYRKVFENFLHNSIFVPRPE
Sequence of (Homo sapiens, UniProt P08069) (P08069 741-1367 limits assumed): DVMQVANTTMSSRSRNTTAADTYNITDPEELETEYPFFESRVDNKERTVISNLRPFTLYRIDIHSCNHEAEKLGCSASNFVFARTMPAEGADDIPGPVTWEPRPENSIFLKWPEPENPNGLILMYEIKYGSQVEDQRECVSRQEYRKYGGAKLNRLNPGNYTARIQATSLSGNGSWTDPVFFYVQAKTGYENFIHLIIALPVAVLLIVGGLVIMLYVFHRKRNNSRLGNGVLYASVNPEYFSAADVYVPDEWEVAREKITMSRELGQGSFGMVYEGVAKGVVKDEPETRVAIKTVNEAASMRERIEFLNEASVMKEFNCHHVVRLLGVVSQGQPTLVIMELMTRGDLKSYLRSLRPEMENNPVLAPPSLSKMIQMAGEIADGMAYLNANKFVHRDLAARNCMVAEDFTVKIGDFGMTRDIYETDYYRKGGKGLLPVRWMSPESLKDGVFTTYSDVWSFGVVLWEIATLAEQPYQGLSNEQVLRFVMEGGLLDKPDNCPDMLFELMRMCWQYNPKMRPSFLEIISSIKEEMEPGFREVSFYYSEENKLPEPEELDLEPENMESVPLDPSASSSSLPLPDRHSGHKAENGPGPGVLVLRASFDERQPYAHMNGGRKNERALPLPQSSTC
In series [4] the test system is human colon (Colo205) carcinoma cell line.
Another series has as its system human tumour. Conditions: in vivo xenograft and orthotopic models.
Another series addresses SSTR5 (Homo sapiens, UniProt P35346).

Sequence of SSTR2 (P30874 whole entry): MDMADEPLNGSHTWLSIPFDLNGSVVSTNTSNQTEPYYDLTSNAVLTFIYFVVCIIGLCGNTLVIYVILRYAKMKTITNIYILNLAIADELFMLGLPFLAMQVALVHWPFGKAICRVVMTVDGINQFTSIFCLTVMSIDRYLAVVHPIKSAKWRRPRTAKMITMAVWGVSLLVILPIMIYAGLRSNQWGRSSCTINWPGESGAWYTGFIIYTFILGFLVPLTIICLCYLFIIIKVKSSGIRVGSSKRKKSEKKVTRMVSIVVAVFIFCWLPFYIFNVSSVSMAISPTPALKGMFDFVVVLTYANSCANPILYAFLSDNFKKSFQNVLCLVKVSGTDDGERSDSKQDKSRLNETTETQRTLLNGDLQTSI
Sequence of SSTR5 (P35346 whole entry): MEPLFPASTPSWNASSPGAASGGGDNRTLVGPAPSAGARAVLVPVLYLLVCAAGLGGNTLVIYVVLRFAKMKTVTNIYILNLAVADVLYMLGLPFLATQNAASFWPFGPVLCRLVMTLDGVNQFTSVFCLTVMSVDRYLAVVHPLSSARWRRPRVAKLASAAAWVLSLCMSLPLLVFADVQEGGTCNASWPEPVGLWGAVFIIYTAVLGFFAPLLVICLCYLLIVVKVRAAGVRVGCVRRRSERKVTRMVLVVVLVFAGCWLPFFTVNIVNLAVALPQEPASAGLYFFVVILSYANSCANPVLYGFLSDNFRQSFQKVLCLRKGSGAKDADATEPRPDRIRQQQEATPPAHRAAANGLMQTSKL
Sequence of SSTR4 (P31391 whole entry): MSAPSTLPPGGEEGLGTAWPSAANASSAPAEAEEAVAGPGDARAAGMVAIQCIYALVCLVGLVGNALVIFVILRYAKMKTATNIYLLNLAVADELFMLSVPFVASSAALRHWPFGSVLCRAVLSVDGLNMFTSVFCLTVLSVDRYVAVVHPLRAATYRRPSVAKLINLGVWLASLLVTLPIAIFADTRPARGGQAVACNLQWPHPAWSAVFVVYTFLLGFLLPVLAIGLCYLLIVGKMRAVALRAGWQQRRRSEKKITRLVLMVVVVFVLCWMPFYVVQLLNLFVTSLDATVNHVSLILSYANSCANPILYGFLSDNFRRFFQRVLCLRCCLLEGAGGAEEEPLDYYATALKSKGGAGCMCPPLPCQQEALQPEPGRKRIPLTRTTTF

As for `COc1ccccc1OCCNCC(O)COc1cccc2[nH]c3ccccc3c12` (stereo not shown) [carvedilol], in the series on portal hypertension, the “reduction of portal hypertension (PH)” value is reported as “more effective than propranolol”.
In the case of `CC(C)[C@@H]1NC(=O)[C@H](CCCCN)NC(=O)[C@@H](Cc2c[nH]c3ccccc23)NC(=O)[C@H](Cc2ccc(O)cc2)NC(=O)[C@@H](NC(=O)[C@H](N)Cc2ccc3ccccc3c2)CSSC[C@@H](C(=O)N[C@H](C(N)=O)[C@@H](C)O)NC1=O` [lanreotide], the “binding affinity to SSTR1” value at SSTR1 is reported as “reduced or no binding”. In addition, the “binding affinity to SSTR2” value at SSTR2 is reported as “high affinity”. For the same compound, the “binding affinity to SSTR3” value at SSTR3 is recorded as “reduced or no binding”. At SSTR4, the “binding affinity to SSTR4” value was “reduced or no binding”.
In the case of `C[C@@H](O)[C@@H]1NC(=O)[C@H](CCCCN)NC(=O)[C@@H](Cc2c[nH]c3ccccc23)NC(=O)[C@H](Cc2ccccc2)NC(=O)[C@@H](NC(=O)[C@H](N)Cc2ccccc2)CSSC[C@@H](C(=O)N[C@H](CO)[C@@H](C)O)NC1=O` [octreotide], the “binding affinity to SSTR2” value at SSTR2 is recorded as “high affinity”. At SSTR3, the “binding affinity to SSTR3” value is on record as “reduced affinity”.
Consider “IMC-A12: fully human monoclonal IgG1 antibody, anti-IGF1R”, for which the cell apoptosis entry in series [1], in series [2] and in series [4] was “induces cell apoptosis” throughout. Moreover, the cell proliferation result in [1], in series [2] and in series [4] was “inhibits cell proliferation” each time. In [3], the binding affinity entry is recorded as “high affinity”. For the same compound, the antitumour activity result with human tumour is “shown activity against a human tumour”.
Take `NCCCC[C@@H]1NC(=O)[C@@H](Cc2c[nH]c3ccccc23)NC(=O)[C@H](c2ccccc2)NC(=O)[C@@H]2C[C@@H](OC(=O)NCCN)CN2C(=O)[C@H](Cc2ccccc2)NC(=O)[C@H](Cc2ccc(OCc3ccccc3)cc2)NC1=O` [pasireotide] (cyclo([Hyp]([CO-Ethylenediamine])[Phg][dW]KY(Bn)F)): on SSTR1, the “binding affinity to SSTR1” value is reported as “decreased affinity”. Moreover, the “binding affinity to SSTR2” value at SSTR2 is reported as “decreased affinity”. The “binding affinity to SSTR3” value on SSTR3 was “decreased affinity”. In addition, at SSTR5, the “binding affinity to SSTR5” value is recorded as “high affinity”.
